Data published in patent EP0121764B1, “Polypeptides” (F. HOFFMANN-LA ROCHE AG, priority 1983, dated 1990).
No end group written: not given here.

What was measured:
[1] = tested on: in Gewebekultur gezüchtete Zellen von Rattenhypophysen; assay: Growth hormone release from cultured rat pituitary cells (RIA for rat growth hormone); assay type: cell-based, Sprague-Dawley-Ratten
Source text: Die biologische Aktivität von (leu^27)-GRF(1―44)-OH wurde mit derjenigen von natürlichem GRF(1―44)-NH2 verglichen, das aus einem Pankreastumor eines an Akromegalie leidenden Patienten isoliert wurde (Salk Institute Standard hp-GRF-NH2(NL-A-10)). Der Test auf biologische Aktivität, bei dem die Fähigkeit gemessen wird, in Gewebekultur gezüchtete Zellen von Rattenhypophysen zur Wachstumshormonproduktion zu stimulieren, wurde in der folgenden Weise durchgeführt:
Die Hypophysen-Vorderlappen von 30-40 männlichen Sprague-Dawley-Ratten (175 g) wurden dreimal mit sterilem Hepes-Puffer (pH 7,5) gewaschen und bei 37°C in 20-30 ml Hepes-Puffer (0,025 m, pH 7,35), enthaltend Kollagenase (4 mg/ml) und Dispase (2 mg/ml), dispergiert. Nach 100-110 minütiger Behandlung mit einem Vortex-Mixer und Behandlung mit Pasteur-Pipette, wurden die dispergierten Zellen durch Zentrifugieren (4 Minuten, 150xg) abgetrennt und während 10 Minuten in Hepes-Puffer, enthaltend 8 pg/ml Neuraminidase und 200 pg/ml Ethylendiamintetraessigsäure-dinatriumsalz, pH 7,35, resuspendiert. Die Zellen wurden zweimal mit folgendem Medium gewaschen: F-12/DMEM/BGjb (6:3:1) (Gibco: 430―1700/430―1600/320―2591) mit 2 g/I Rinderserumalbumin (BSA), 2x38 g/I Hepes und 50 mg/I Gentamycin und auf Mikrotiterplatten aufgebracht (1,5x10^5 Zellen/ml). Dem Medium in den einzelnen Löchern wurde entweder (leu^27)-GRF(1―44)-OH oder natürliches GRF(1-44)-NH2 in solchen Mengen zugesetzt, dass sich folgende Konzentrationen ergaben: 3.1, 6.3, 12.5, 25.0, 50.0, 100.0 und 200.0 fMol/ml. Die Kontrollen wurden nicht supplementiert. Das Aufbringen mit diesem Medium erfolgte unter Zusatz von 2% fötalem Kälberserum, um eine schnelle Fixierung der Zellen zu erreichen. Am vierten Tag wurden die Zellen zweimal mit dem oben definierten Medium (ohne Kälberserum) gewaschen. Schliesslich wurden jedem Loch 900 µl des Mediums sowie 100 µl Medium mit der Testsubstanz zugesetzt (jeweils dreifach). Nach dreistündiger Inkubation wurde der Überstand gesammelt und soweit verdünnt, dass Radioimmunoassays (RIAs) auf Ratten-Wachstumshormon durchgeführt werden konnten. […]

[2] = synthetically prepared peptides; factor relative to GRF(1-40)-OH; cited from earlier work

| Substance | relative Aktivität gegenüber dem Standard des Salk Instituts ([1]; computer analysis of the table data, standard hp-GRF-NH2(NL-A-10) = natural GRF(1-44)-NH2, 3.1-200.0 fMol/ml, 3 h incubation) | Faktor, um den die ausgeschüttete Menge an Wachstumshormon grösser ist, bezogen auf (leu^27)-GRF-OH ([1]; in vitro) | Aktivität verglichen mit GRF(1-44)-NH2 ([1]; stimulation of growth hormone production, 3.1-200.0 fMol/ml, 3 h incubation) | Aktivitäten ähnlich wie GRF(1-40)-OH (innerhalb eines Faktors) [2] |
| --- | --- | --- | --- | --- |
| (leu^27)-GRF(1―44)-OH (YADAIFTNSYRKVLGQLSARKLLQDILSRQQGESNQERGARARL-OH; UniProt P01286 32-75, looked up, variant M27L) [(Leu^27)-GRF(1-44)-OH] | 1,063 | ≥ 10 | gleich oder leicht höher |  |
| GRF(1-29)-NH2: synthetic GRF fragment, first 29 amino acids, amidated (Rivier et al.) (YADAIFTNSYRKVLGQLSARKLLQDIMSR-NH2; UniProt P01286 32-60, looked up, fragment) |  |  |  | ≤ 2 |
| GRF(1-32)-NH2: synthetic GRF fragment, first 32 amino acids, amidated (Rivier et al.) (YADAIFTNSYRKVLGQLSARKLLQDIMSRQQG-NH2; UniProt P01286 32-63, looked up, fragment) |  |  |  | ≤ 2 |
| GRF(1-39)-NH2: synthetic GRF fragment, first 39 amino acids, amidated (Rivier et al.) (YADAIFTNSYRKVLGQLSARKLLQDIMSRQQGESNQERG-NH2; UniProt P01286 32-70, looked up, fragment) |  |  |  | ≤ 2 |
| GRF(1-40)-NH2: synthetic GRF fragment, first 40 amino acids, amidated (Rivier et al.) (YADAIFTNSYRKVLGQLSARKLLQDIMSRQQGESNQERGA-NH2; UniProt P01286 32-71, looked up, fragment) |  |  |  | ≤ 2 |
